Test results as given in patent US20230348369A1 (Cytokinetics, Inc., priority 2020, published 2023).
pEC50: −log10 of the molar value. Like-named read-outs stand apart in the source and are kept apart here.

Key:
[1] = target: human NAMPT (Homo sapiens, UniProt P43490); experiment: Human recombinant enzyme assay (NMN fluorescence biochemical assay, activation of NAMPT)
Method in brief: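 Activation of recombinant human NAMPT (6 nM) with 2.5 mM ATP, 20 μM PRPP and 150 μM nicotinamide in 50 mM HEPES pH 7.2, 1 mM DTT, 1 mM CHAPS, 50 mM NaCl, 100 mM MgCl2; 60 min, ambient temperature. NMN formed was derivatized with acetophenone/KOH/formic acid, fluorescence read at 355/460 nm after 40 min.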

[2] = target: T1, endogenous NAMPT (Homo sapiens, UniProt P43490); experiment: Cellular NAD+ modulation assay in neuroblastoma SH-SY5Y cells; type: cell-based
T1 construct: stimulate the endogenous NAMPT in a native cellular environment; endogenous in cells; host or cells: SH-SY5Y neuroblastoma cells
Description: The compounds described herein were also assayed for their ability to stimulate the endogenous NAMPT in a native cellular environment in the cellular NAD+ modulation assay, which measures the ability of the compound to modulate cellular NAD levels. Increased levels of NAD are expected by compounds that permeate the cells and activate the catalytic activity of the endogenous NAMPT.
Neuroblastoma SH-SY5Y cells were grown in 1:1 mixture of Eagle's Minimum Essential Medium and F12 Medium, along with 10% fetal bovine serum, in a humidified incubator with an atmosphere of 95% air and 5% CO2 at 37° C. The assays were initiated by plating 20 μL of SH-SY5Y cells in culture medium with 0.1% fetal bovine serum, at a density of 5000 cells per well to a 384-well Corning™ BioCoat™ Poly-D-Lysine Multiwell Plates. The plates were incubated in the 37° C. incubators for a period of 5 hours. Compounds in DMSO were added to the plates in a volume of 120 nL using the Labcyte Echo Liquid Handlers. […] The plates are then incubated for 40 hours. 30 μL of a readout-solution containing 0.2 U/mL Diaphorase enzyme, 40 uM resazurin, 10 uM FMN, 0.8 U/mL Alcohol dehydrogenase, 3% ethanol, 0.4 mg/mL bovine serum albumin, 0.2% Triton X-100 in 100 mM Tris-HCl, 30 mM EDTA, pH 8.4. The plates were read for fluorescence (Excitation/Emission=540 nm/590 nm) using an EnVision plate reader after 60 mins of incubation at ambient temperature.

[3] = Table A, human recombinant NAMPT, NMN formation, 60 min
[4] = Table A, human recombinant NAMPT, NMN formation, 60 min, read-out: EC50 Human
[5] = Table B, SH-SY5Y cells, cellular NAD levels, doxorubicin, 40 hours
[6] = Table B, SH-SY5Y cells, cellular NAD levels, doxorubicin, 40 hours, read-out: EC50

T1 sequence (P43490 whole entry): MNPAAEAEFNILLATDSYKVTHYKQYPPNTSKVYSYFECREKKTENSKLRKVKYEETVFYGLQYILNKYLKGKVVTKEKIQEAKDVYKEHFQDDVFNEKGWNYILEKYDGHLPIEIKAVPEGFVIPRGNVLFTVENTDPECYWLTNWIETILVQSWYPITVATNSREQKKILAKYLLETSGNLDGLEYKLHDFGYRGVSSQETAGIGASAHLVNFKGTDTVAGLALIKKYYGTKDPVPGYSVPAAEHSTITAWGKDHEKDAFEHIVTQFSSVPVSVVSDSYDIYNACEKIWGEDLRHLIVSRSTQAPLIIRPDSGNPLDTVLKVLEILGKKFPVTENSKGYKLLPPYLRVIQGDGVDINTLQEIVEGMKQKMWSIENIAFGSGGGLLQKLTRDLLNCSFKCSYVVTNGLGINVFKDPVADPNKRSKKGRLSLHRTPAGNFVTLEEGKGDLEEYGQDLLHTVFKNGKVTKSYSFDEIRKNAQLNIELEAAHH
human NAMPT, sequence (P43490 whole entry): as above

| Compound | AC1.4 Human [1, 3] | pEC50 [1, 4] | AC0.3 [2, 5] | pEC50 [2, 6] | pEC50 [1] | pEC50 [2] |
| --- | --- | --- | --- | --- | --- | --- |
| COc1ccc(CNC(=O)NC2CC3(C2)CN(C(=O)c2ccc(C)nc2)C3)cc1 [Compound 138, 1-(4-methoxybenzyl)-3-(2-(6-methylnicotinoyl)-2-azaspiro[3.3]heptan-6-yl)urea] | 5.7 µM | 4.36 | 9.1 µM | 5.00 |  |  |
| COc1ccc(CNC(=O)NC2CC3(C2)CN(C(=O)c2ccnc(C)c2)C3)cc1 [Compound 140, 1-(4-methoxybenzyl)-3-(2-(2-methylisonicotinoyl)-2-azaspiro[3.3]heptan-6-yl)urea] | 7.5 µM | 4.28 | 8.2 µM | 5.20 |  |  |
| COc1ccc(CNC(=O)NC2CC3(C2)CN(C(=O)c2ccc(C)cc2)C3)cc1 [Compound 145, 1-(4-methoxybenzyl)-3-(2-(4-methylbenzoyl)-2-azaspiro[3.3]heptan-6-yl)urea] | 1.4 µM | 4.34 | 1.1 µM | 5.51 |  |  |
| COc1ccc(CNC(=O)NCCCCCOc2ccccc2)cc1 [Compound 149, 1-(4-methoxybenzyl)-3-(5-phenoxypentyl)urea] | 0.3 µM | 5.31 | 0.6 µM | 5.96 |  |  |
| Cc1cccc(C(=O)N2CC[C@]3(C2)C[C@@H](NC(=O)NCc2ccc(Cl)cc2)C3)c1 [Compound 161, 1-(4-chlorobenzyl)-3-((2r,4s)-6-(3-methylbenzoyl)-6-azaspiro[3.4]octan-2-yl)urea] | 7.5 µM | 4.80 | 0.3 µM | 6.10 |  |  |
| Cc1ccccc1C(=O)N1CC[C@]2(C1)C[C@@H](NC(=O)NCc1ccc(Cl)cc1)C2 [Compound 162, 1-(4-chlorobenzyl)-3-((2r,4s)-6-(2-methylbenzoyl)-6-azaspiro[3.4]octan-2-yl)urea] | 6.2 µM | 4.66 | 0.7 µM | 6.00 |  |  |
| Cc1ccc(C(=O)N2CC[C@]3(C2)C[C@H](NC(=O)NCc2ccc(Cl)cc2)C3)cc1 [Compound 164, 1-(4-chlorobenzyl)-3-((2s,4r)-6-(4-methylbenzoyl)-6-azaspiro[3.4]octan-2-yl)urea] | 12.6 µM | 4.40 | 11.6 µM | 4.89 |  |  |
| O=C(NCCOCCOc1ccccc1)NCc1ccc(Cl)cc1 [Compound 196, 1-(4-chlorobenzyl)-3-(2-(2-phenoxyethoxy)ethyl)urea] | 3.7 µM | 4.59 | 1.0 µM | 5.48 |  |  |
| Cc1cccc(N2CC[C@]3(C2)C[C@H](NC(=O)NCc2ccc(Cl)cc2)C3)n1 [Compound 199, 1-(4-chlorobenzyl)-3-((2s,4r)-6-(6-methylpyridin-2-yl)-6-azaspiro[3.4]octan-2-yl)urea] | 10.6 µM | 4.37 | 2.0 µM |  |  |  |
| CN(C(=O)[C@H]1C[C@@]2(C[C@H](NC(=O)NCc3ccc(Cl)cc3)C2)C1)C1CCOC1 (stereo partly drawn) [Compound 202, (2S,4s,6S)-6-(3-(4-chlorobenzyl)ureido)-N-methyl-N-((R)-tetrahydrofuran-3-yl)spiro[3.3]heptane-2-carboxamide] | 0.9 µM | 5.66 | 0.5 µM | 6.22 |  |  |
| Cc1ncccc1C(=O)NC1CC2(CC(NC(=O)NCc3ccc(Cl)cc3)C2)C1 (stereo not shown) [Compound 203, N-(6-(3-(4-chlorobenzyl)ureido)spiro[3.3]heptan-2-yl)-2-methylnicotinamide] | 8.2 µM | 4.46 | 8.9 µM | 5.00 |  |  |
| Cc1ccc(C(=O)N2CC3(CC(NC(=O)NCc4ccc(Cl)cc4)C3)C2)cc1 [Compound 206, 1-(4-chlorobenzyl)-3-(2-(4-methylbenzoyl)-2-azaspiro[3.3]heptan-6-yl)urea] | 2.2 µM | 5.37 | 0.2 µM | 6.30 |  |  |
| Cc1ccc(C(=O)N2CC3(CC(NC(=O)NCc4ccncc4)C3)C2)cc1 [Compound 210, 1-(2-(4-methylbenzoyl)-2-azaspiro[3.3]heptan-6-yl)-3-(pyridin-4-ylmethyl)urea] | 1.9 µM | 4.30 | 9.7 µM | 5.05 |  |  |
| Cc1ccc(C(=O)N2CC3(CC(NC(=O)NCc4ccc(C(N)=O)cc4)C3)C2)cc1 [Compound 211, 4-((3-(2-(4-methylbenzoyl)-2-azaspiro[3.3]heptan-6-yl)ureido)methyl)benzamide] | 0.5 µM | 4.56 | >20.1 µM |  |  |  |
| N#Cc1ccccc1C(=O)NC1CC2(CC(NC(=O)NCc3ccc(Cl)cc3)C2)C1 (stereo not shown) [Compound 212, N-(6-(3-(4-chlorobenzyl)ureido)spiro[3.3]heptan-2-yl)-2-cyanobenzamide] | 7.2 µM |  | 0.3 µM |  | 5.22 | 7.00 |
| Cc1ccc(C(=O)N2CC3(CC(NC(=O)NCc4ccc(=O)[nH]c4)C3)C2)cc1 [Compound 214, 1-(2-(4-methylbenzoyl)-2-azaspiro[3.3]heptan-6-yl)-3-((6-oxo-1,6-dihydropyridin-3-yl)methyl)urea] | 10.5 µM | 4.44 | >20.1 µM |  |  |  |
| COc1ccc(CNC(=O)N[C@H]2C[C@]3(C2)C[C@H](C(=O)N2CCCc4ccccc42)C3)cc1 (stereo partly shown) [Compound 229, 1-(4-methoxy-benzyl)-3-(6-(1,2,3,4-tetrahydro-quinoline-1-carbonyl)spiro[3.3]heptan-2-yl)urea] |  | 5.92 |  | 6.70 |  |  |
| Cc1ccc(C(=O)NC[C@H]2C[C@]3(C2)C[C@@H](NC(=O)NCc2ccc(Cl)cc2)C3)cn1 (stereo partly shown) [Compound 249, N-((6-(3-(4-chlorobenzyl)ureido)spiro[3.3]heptan-2-yl)methyl)-6-methyl-nicotinamide] |  | 5.57 |  | 6.05 |  |  |
| O=C(NCCCCC(=O)N1CCCc2ccccc21)NCc1ccc(Cl)cc1 [Compound 256, 1-(4-chlorobenzyl)-3-(5-(3,4-dihydroquinolin-1(2H)-yl)-5-oxopentyl)urea] | 1.0 µM | 5.70 | 0.3 µM | 6.52 |  |  |
| CN(C(=O)CCCCCNC(=O)NCc1ccc(Cl)cc1)c1ccccc1 [Compound 268, 6-(3-(4-chlorobenzyl)ureido)-N-methyl-N-phenylhexanamide] | 0.3 µM | 6.30 | 0.1 µM | 7.00 |  |  |
| CN(C(=O)CCCCCNC(=O)NCc1cn[nH]c1)c1ccccc1F [Compound 287, 6-(3-((1H-pyrazol-4-yl)methyl)ureido)-N-(2-fluorophenyl)-N-methylhexanamide] | 0.1 µM | 5.36 | 0.3 µM | 6.00 |  |  |
| CN(C(=O)CCCCCNC(=O)NCc1cnco1)c1ccccc1F [Compound 288, N-(2-fluorophenyl)-N-methyl-6-(3-(oxazol-5-ylmethyl)ureido)hexanamide] | 0.3 µM | 5.43 | 0.3 µM | 6.10 |  |  |
| [2H]C([2H])(CCCC1CCN(C(=O)c2ccccc2)CC1)NC(=O)NCc1cnco1 [Compound 293, 1-(4-(1-benzoylpiperidin-4-yl)butyl-1,1-d2)-3-(oxazol-5-ylmethyl)urea] | 0.1 µM | 5.82 | 0.3 µM | 6.52 |  |  |
